The record followed here is PubChem BioAssay AID720495 (Broad Institute, 2013).

By AC50 is commonly meant the concentration giving half of the maximal activity seen.

Inconclusive results are not listed. Activity calls are given as the source filed them. The rule behind the calls is not given here.

This experiment addresses Protein AF-9 (Homo sapiens) (UniProt P42568). Description: AF9 binding to AF4 blockers, potency – biochemical, cherry-picked samples, plate reader, dose response (AID 720495). Conditions: biochemical protein-protein interaction assay; for activity change, negative = inhibition: at 10 µM (top of the series).

Protein AF-9 (Homo sapiens), sequence (P42568 whole entry, looked up): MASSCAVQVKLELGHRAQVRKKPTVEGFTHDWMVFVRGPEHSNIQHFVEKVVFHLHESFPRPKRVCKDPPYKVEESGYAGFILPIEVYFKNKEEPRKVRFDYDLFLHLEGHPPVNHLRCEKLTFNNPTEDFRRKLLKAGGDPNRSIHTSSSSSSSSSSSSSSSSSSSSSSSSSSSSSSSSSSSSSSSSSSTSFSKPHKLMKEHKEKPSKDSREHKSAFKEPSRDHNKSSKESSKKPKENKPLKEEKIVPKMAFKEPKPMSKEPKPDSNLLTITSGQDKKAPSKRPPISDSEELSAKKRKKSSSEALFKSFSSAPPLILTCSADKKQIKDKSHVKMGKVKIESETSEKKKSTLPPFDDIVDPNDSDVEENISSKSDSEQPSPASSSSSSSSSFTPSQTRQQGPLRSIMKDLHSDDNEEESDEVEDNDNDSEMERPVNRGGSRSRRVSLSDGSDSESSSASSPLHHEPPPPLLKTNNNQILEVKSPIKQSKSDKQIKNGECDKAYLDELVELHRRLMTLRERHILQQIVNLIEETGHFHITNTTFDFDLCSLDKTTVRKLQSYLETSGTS

On to `CCC1CN2CCc3cc(OC)c(OC)cc3C2CC1CC1NCCc2c1[nH]c1ccc(O)cc21` (centres undefined), for which the half-maximal activity concentration (AC50) was 7.26 µM.

With `CCOc1ccc(Nc2ccc([N+](=O)[O-])c3nonc23)cc1`, the “activity change, negative = inhibition” value is “inactive”.

With `Cc1c(C(=O)NCC(c2ccco2)N(C)C)oc2c(Cl)cccc12` (centres undefined), the AC50 was 7.77 µM.

With `COc1ccc(C(CCNCc2ccc(N(C)C)cc2)C(C)C)cc1` (centres undefined), the AC50 was 2.88 µM.

On to `CC(C)n1ncc2c(C(=O)Nc3ccc(S(N)(=O)=O)cc3)cc(C3CC3)nc21`, for which the “activity change, negative = inhibition” value is “inactive”.

For the compound `CC1NC(=O)NC1CCCCCC(=O)Nc1ccc(F)c(Cl)c1` (centres undefined), the AC50 was less than 0.08 µM.

For the compound `CCCC(=O)NC(c1ccc(OC)cc1)c1ccc2cccnc2c1O` (centres undefined), the AC50 was 0.865 µM.

As to `O=C(N/N=C/c1cc(Cl)cc([N+](=O)[O-])c1O)c1cccc(S(=O)(=O)N2CCOCC2)c1`, the “activity change, negative = inhibition” value was “inactive”.

Turning to `COC(=O)c1ccc2nc(C)cc(Nc3ccc(N(C)C)cc3)c2c1`, the AC50 is 4.41 µM.

In the case of `CN(C)CCCNC(=S)NCC(c1ccc(Cl)cc1Cl)c1c[nH]c2ccccc12` (centres undefined), the AC50 was 10.7 µM.

Take `COc1ccc(-c2oc3ccccc3c(=O)c2OC(C)=O)cc1`: the “activity change, negative = inhibition” value is “inactive”.

Take `Nc1ccc(O)c2c1C(=O)c1ccccc1C2=O`: the “activity change, negative = inhibition” value is “inactive”.

Consider `C#CCOCCOCCOCCNc1nc(N2CCN(C(=O)[C@H]([C@@H](C)CC)n3cc(CCCN=C(N)N)nn3)CC2)nc(N2CCN(C(=O)[C@H](CCCCN)n3cc(CCCC)nn3)CC2)n1`, for which the AC50 is 8.98 µM.

As for `CCN(CCCl)c1cc(CN(C)C)cc(NC(=O)c2ccc(C(=O)Nc3cc(CN(C)C)cc(N(CC)CCCl)c3)cc2)c1`, the AC50 was 0.683 µM.
